In data set [1] the target is T1, HER3 (Homo sapiens, UniProt P21860).
T1 construct: endogenous in cells
As to the kind of experiment: HER3 (ERBB3) degradation, immunoblot. The settings on record: Table 5. It is filed as cell-based. For orientation: A western blot detects proteins with antibodies after separation by electrophoresis.

Data set [2] addresses T2, BTK (Homo sapiens, UniProt Q06187).
T2 construct: host or cells: NAMALWA
Put plainly: BTK degradation in NAMALWA cells, immunoblot. It is filed as cell-based.

The nature of data set [3]: Pharmacokinetics after IV compound administration in mice. It counts as in vivo. Conditions: for pharmacokinetic profile relative to COMPOUND 102: IV mice; for Clearance (Cl) / Half Life (t1/2) / Cmax / AUC(0-t): IV mice (1 mg/Kg); for Cmax: Tmax 0.033 h; for AUC(0-t): mouse, in vivo, read-out: Exposure (AUClast).

Molecules are shown by their SMILES. Where two headings read alike, the source gives them in different places. Where only a bound is given, the exact number is not on record here.

One may read the Cmax as the highest concentration seen after dosing. For orientation: DC50 means the concentration at which degradation of the target reaches its halfway point. Read a low DC50 as a more potent degrader. For orientation: Dmax means the largest share of the target that was removed.

T2 sequence (Q06187 whole entry): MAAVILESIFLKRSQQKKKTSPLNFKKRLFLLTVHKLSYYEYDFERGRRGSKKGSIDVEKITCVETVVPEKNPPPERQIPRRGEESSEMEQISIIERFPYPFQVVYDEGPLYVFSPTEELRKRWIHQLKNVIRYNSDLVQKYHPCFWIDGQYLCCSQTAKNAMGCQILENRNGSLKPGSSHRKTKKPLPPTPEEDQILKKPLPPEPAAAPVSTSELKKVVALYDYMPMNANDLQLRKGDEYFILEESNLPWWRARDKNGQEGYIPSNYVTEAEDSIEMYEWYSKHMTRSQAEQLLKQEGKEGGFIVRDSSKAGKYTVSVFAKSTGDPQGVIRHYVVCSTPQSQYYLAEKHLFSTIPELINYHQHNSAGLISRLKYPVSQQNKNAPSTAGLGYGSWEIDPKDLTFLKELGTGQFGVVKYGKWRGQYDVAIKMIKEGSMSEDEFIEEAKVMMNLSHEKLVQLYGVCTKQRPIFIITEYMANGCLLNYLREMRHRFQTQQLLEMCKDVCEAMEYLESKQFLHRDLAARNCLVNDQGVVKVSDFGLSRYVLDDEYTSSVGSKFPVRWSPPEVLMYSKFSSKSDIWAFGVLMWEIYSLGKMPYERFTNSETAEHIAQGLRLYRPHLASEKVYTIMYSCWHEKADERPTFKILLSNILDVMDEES
T1 sequence (P21860 20-1342): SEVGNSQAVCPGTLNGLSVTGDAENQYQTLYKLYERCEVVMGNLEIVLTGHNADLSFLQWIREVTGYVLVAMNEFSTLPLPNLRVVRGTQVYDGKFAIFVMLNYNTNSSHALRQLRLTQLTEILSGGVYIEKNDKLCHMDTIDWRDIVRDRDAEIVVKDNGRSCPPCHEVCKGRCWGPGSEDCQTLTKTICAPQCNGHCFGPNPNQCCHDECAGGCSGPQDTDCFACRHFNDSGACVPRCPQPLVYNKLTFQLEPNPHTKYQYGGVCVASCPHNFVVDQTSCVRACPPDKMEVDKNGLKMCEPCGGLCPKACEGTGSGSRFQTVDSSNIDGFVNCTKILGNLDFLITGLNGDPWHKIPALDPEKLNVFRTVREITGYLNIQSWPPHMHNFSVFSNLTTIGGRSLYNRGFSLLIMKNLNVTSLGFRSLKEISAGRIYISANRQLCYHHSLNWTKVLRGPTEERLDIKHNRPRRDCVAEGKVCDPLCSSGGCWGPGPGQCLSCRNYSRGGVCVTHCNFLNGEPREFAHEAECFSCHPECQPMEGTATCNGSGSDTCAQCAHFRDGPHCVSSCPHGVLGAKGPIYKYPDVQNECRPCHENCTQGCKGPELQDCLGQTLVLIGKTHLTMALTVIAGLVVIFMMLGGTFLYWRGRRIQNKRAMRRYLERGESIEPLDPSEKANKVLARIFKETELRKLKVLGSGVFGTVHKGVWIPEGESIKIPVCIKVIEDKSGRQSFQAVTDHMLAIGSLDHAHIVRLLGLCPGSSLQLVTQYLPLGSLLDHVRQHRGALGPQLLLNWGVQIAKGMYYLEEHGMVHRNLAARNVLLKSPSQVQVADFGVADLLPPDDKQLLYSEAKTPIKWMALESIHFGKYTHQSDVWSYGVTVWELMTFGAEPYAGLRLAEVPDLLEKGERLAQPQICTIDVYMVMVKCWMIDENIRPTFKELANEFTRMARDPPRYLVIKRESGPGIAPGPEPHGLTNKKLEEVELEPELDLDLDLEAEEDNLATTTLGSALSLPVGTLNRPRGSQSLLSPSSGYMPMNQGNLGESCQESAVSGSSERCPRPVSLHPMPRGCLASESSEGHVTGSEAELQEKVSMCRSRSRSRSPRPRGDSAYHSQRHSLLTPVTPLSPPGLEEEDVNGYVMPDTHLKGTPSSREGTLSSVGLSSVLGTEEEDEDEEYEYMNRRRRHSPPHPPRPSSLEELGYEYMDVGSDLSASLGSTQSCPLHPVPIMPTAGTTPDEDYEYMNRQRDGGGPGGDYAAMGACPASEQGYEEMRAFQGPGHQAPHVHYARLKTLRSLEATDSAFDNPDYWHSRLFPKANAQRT

With `Nc1ncnc2c1c(-c1ccc(Oc3ccccc3)cc1)nn2C1CCN(CCCOCCCOCCC(=O)Nc2cccc3c2C(=O)N(C2CCC(=O)NC2=O)C3=O)CC1` (centres unmarked) [Compound 103, 3-(3-(3-(4-(4-amino-3-(4-phenoxyphenyl)-1H-pyrazolo[3,4-d]pyrimidin-1-yl)piperidin-1-yl)propoxy)propoxy)-N-(2-(2,6-dioxopiperidin-3-yl)-1,3-dioxoisoindolin-4-yl)propanamide], the “HER3 Degradation” value in data set [1] was “No”.

With `Nc1ncnc2c1c(-c1ccc(Oc3ccccc3)cc1)nn2C1CCN(CCCCCCOCCCCCCOCC(=O)Nc2cccc3c2C(=O)N(C2CCC(=O)NC2=O)C3=O)CC1` (centres unmarked) [Compound 107, 2-(6-(6-(4-(4-amino-3-(4-phenoxyphenyl)-1H-pyrazolo[3,4-d]pyrimidin-1-yl)piperidin-1-yl)hexyloxy)hexyloxy)-N-(2-(2,6-dioxopiperidin-3-yl)-1,3-dioxoisoindolin-4-yl)acetamide], the “HER3 Degradation” value in data set [1] is reported as “No”.

As to `Nc1ncnc2c1c(-c1ccc(Oc3ccccc3)cc1)nn2C1CCN(CCOCC(=O)Nc2cccc3c2C(=O)N(C2CCC(=O)NC2=O)C3=O)CC1` (centres unmarked) [Compound 100, 2-(2-(4-(4-amino-3-(4-phenoxyphenyl)-1H-pyrazolo[3,4-d]pyrimidin-1-yl)piperidin-1-yl)ethoxy)-N-(2-(2,6-dioxopiperidin-3-yl)-1,3-dioxoisoindolin-4-yl)acetamide], the “ability to degrade BTK” value in data set [2] (NAMALWA cells) is on record as “inability to degrade BTK”.

On to `Nc1ncnc2c1c(-c1ccc(Oc3ccccc3)cc1)nn2C1CCN(CCOCCOCCOc2ccc3c(c2)C(=O)N(C2CCC(=O)NC2=O)C3=O)CC1` (centres unmarked) [COMPOUND 131, 5-(2-(2-(2-(4-(4-amino-3-(4-phenoxyphenyl)-1H-pyrazolo[3,4-d]pyrimidin-1-yl)piperidin-1-yl)ethoxy)ethoxy)ethoxy)-2-(2,6-dioxopiperidin-3-yl)isoindoline-1,3-dione], for which, in data set [3], the “pharmacokinetic profile relative to COMPOUND 102” value is recorded as “superior pharmacokinetic profiles relative to COMPOUND 102”, the “Clearance (Cl)” value is given as 102 mL/min/kg, the “Half Life (t1/2)” value is reported as 1.62 h and the Cmax was 831 ng/mL. In data set [3], the AUC(0-t) worked out at 166 ng·h/mL. In data set [2] (NAMALWA cells), the “degradation potency/profile compared with COMPOUND 102” value is “similarly potent degradation profile as COMPOUND 102”. The compound further showed a DC50 in data set [2] (Table 5, NAMALWA cells) of 11 nM. In addition, the DC50 in data set [2] (Table 6, in NAMALWA cells line) stood at 11 nM. For the same compound, the Dmax in data set [2] (Table 6, in NAMALWA cells line, read-out: Dmax) was > 99%.

As to `Cc1ncsc1-c1ccc(CNC(=O)[C@@H]2C[C@@H](O)CN2C(=O)[C@@H](NC(=O)COCCCCCOCCCCCCN2CCC(n3nc(-c4ccc(Oc5ccccc5)cc4)c4c(N)ncnc43)CC2)C(C)(C)C)cc1` [Compound 111, (2S,4R)-1-((S)-2-(2-(5-(6-(4-(4-amino-3-(4-phenoxyphenyl)-1H-pyrazolo[3,4-d]pyrimidin-1-yl)piperidin-1-yl)hexyloxy)pentyloxy)acetamido)-3,3-dimethylbutanoyl)-4-hydroxy-N-(4-(4-methylthiazol-5-yl)benzyl)pyrrolidine-2-carboxainide], the “HER3 Degradation” value in data set [1] is “No”.

As for `Cc1ncsc1-c1ccc(CNC(=O)[C@@H]2C[C@@H](O)CN2C(=O)[C@@H](NC(=O)COCCOCCN2CCC(n3nc(-c4ccc(Oc5ccccc5)cc4)c4c(N)ncnc43)CC2)C(C)(C)C)cc1` [Compound 129, (2S,4R)-1-((S)-2-(2-(2-(2-(4-(4-amino-3-(4-phenoxyphenyl)-1H-pyrazolo[3,4-d]pyrimidin-1-yl)piperidin-1-yl)ethoxy)ethoxy)acetamido)-3,3-dimethylbutanoyl)-4-hydroxy-N-(4-(4-methylthiazol-5-yl)benzyl)pyrrolidine-2-carboxamide], the Dmax in data set [2] (NAMALWA cells, read-out: Dmax) is < 50%; in data set [2] (Table 6, in NAMALWA cells line) it was <50%. Further, the DC50 is > 1000 nM in data set [2] (Table 5, NAMALWA cells) and > 1000 nM in data set [2] (Table 6, in NAMALWA cells line). Further, the Max in data set [2] (Table 5, at 2.5 μM) is listed as 49%.

Consider `Nc1ncnc2c1c(-c1ccc(Oc3ccccc3)cc1)nn2C1CCN(CCCCOCCCCOCC(=O)Nc2ccc3c(c2)C(=O)N(C2CCC(=O)NC2=O)C3=O)CC1` (centres unmarked) [Compound 105, 2-[4-[4-[4-[4-amino-3-(4-phenoxyphenyl)pyrazolo[3,4-d]pyrimidin-1-yl]-1-piperidyl]butoxy]butoxy]-N-[2-(2,6-dioxo-3-piperidyl)-1,3-dioxo-isoindolin-5-yl]acetamide], for which, in data set [1], the “HER3 Degradation” value is given as “No”.

With `Nc1ncnc2c1c(-c1ccc(Oc3ccccc3)cc1)nn2C1CCN(CCOCCOCCOc2ccc3c(c2)CN(C2CCC(=O)NC2=O)C3=O)CC1` (centres unmarked) [COMPOUND 135, 3-(5-(2-(2-(2-(4-(4-amino-3-(4-phenoxyphenyl)-1H-pyrazolo[3,4-d]pyrimidin-1-yl)piperidin-1-yl)ethoxy)ethoxy)ethoxy)-1-oxoisoindolin-2-yl)piperidine-2,6-dione], in data set [3], the “pharmacokinetic profile relative to COMPOUND 102” value was “superior pharmacokinetic profiles relative to COMPOUND 102”, the “Clearance (Cl)” value is 40.8 mL/min/kg, the “Half Life (t1/2)” value is 1.64 h and the Cmax was 2100 ng/mL. The AUC(0-t) in data set [3] stood at 405 ng·h/mL. The “degradation potency/profile compared with COMPOUND 102” value in data set [2] (NAMALWA cells) was “similarly potent to COMPOUND 102”. The Dmax in data set [2] (NAMALWA cells, read-out: Dmax) was > 99%. In data set [2] (Table 5, NAMALWA cells), the DC50 is 8 nM. Also, in data set [2] (Table 6, in NAMALWA cells line), the DC50 was 8 nM and the Dmax is >99%.

Regarding `Cc1ncsc1-c1ccc(CNC(=O)[C@@H]2C[C@@H](O)CN2C(=O)[C@@H](NC(=O)COCCOCCOCCOCCCCN2CCC(n3nc(-c4ccc(Oc5ccccc5)cc4)c4c(N)ncnc43)CC2)C(C)(C)C)cc1` [Compound 113, (2S,4R)-1-((S)-19-(4-(4-amino-3-(4-phenoxyphenyl)-1H-pyrazolo[3,4-d]pyrimidin-1-yl)piperidin-1-yl)-2-tert-butyl-4-oxo-6,9,12,15-tetraoxa-3-azanonadecane)-4-hydroxy-N-(4-(4-methylthiazol-5-yl)benzyl)pyrrolidine-2-carboxamide], the “HER3 Degradation” value in data set [1] is “No”.

`Cc1ncsc1-c1ccc(CNC(=O)[C@@H]2C[C@@H](O)CN2C(=O)[C@@H](NC(=O)COCCOCCOCCOCCCCCCN2CCC(n3nc(-c4ccc(Oc5ccccc5)cc4)c4c(N)ncnc43)CC2)C(C)(C)C)cc1` [Compound 115, (2S,4R)-1-((S)-22-(4-(4-amino-3-(4-phenoxyphenyl)-1H-pyrazolo[3,4-d]pyrimidin-1-yl)piperidin-1-yl)-2,2-dimethyl-5-oxo-7,10,13,16-tetraoxa-4-azadocosanecarbonyl)-4-hydroxy-N-(4-(4-methylthiazol-5-yl)benzyl)pyrrolidine-2-carboxamide]: the “HER3 Degradation” value in data set [1] is “No”.

With `Cc1ncsc1-c1ccc(CNC(=O)[C@@H]2C[C@@H](O)CN2C(=O)[C@H](C(C)C)N2Cc3ccccc3C2=O)c(OCCCOCCC(=O)N2CCC(n3nc(-c4ccc(Oc5ccccc5)cc4)c4c(N)ncnc43)CC2)c1` [Compound 128, (2S,4R)—N-(2-(3-(3-(4-(4-amino-3-(4-phenoxyphenyl)-1H-pyrazolo[3,4-d]pyrimidin-1-yl)piperidin-1-yl)-3-oxopropoxy)propoxy)-4-(4-methylthiazol-5-yl)benzyl)-4-hydroxy-1-((S)-3-methyl-2-(1-oxoisoindolin-2-yl)butanoyl)pyrrolidine-2-carboxamide], in data set [2] (NAMALWA cells, read-out: Dmax), the Dmax was < 50%. In data set [2] (Table 6, in NAMALWA cells line), the DC50 was > 1000 nM and the maximal degradation (Dmax) is <50%.

As for `CN1C(=O)CCC(N2C(=O)c3ccc(NC(=O)COCCOCCN4CCC(n5nc(-c6ccc(Oc7ccccc7)cc6)c6c(N)ncnc65)CC4)cc3C2=O)C1=O` (centres unmarked) [Compound 130, 2-(2-(2-(4-(4-amino-3-(4-phenoxyphenyl)-1H-pyrazolo[3,4-d]pyrimidin-1-yl)piperidin-1-yl)ethoxy)ethoxy)-N-(2-(1-methyl-2,6-dioxopiperidin-3-yl)-1,3-dioxoisoindolin-5-yl)acetamide], the “ability to degrade BTK” value in data set [2] (NAMALWA cells) was “neither ibrutinib nor Compound 130 were able to induce degradation of BTK”.

`Cc1ncsc1-c1ccc(CNC(=O)[C@@H]2C[C@@H](O)CN2C(=O)[C@H](C(C)C)N2Cc3ccccc3C2=O)c(OCCCCOCCCCN2CCC(n3nc(-c4ccc(Oc5ccccc5)cc4)c4c(N)ncnc43)CC2)c1` [Compound 127, (2S,4R)—N-(2-(4-(4-(4-(4-amino-3-(4-phenoxyphenyl)-1H-pyrazolo[3,4-d]pyrimidin-1-yl)piperidin-1-yl)butoxy)butoxy)-4-(4-methylthiazol-5-yl)benzyl)-4-hydroxy-1-((S)-3-methyl-2-(1-oxoisoindolin-2-yl)butanoyl)pyrrolidine-2-carboxamide]: the Dmax in data set [2] (NAMALWA cells, read-out: Dmax) was < 50%; in data set [2] (Table 6, in NAMALWA cells line) it was <50%. Besides, the DC50 in data set [2] (Table 5, NAMALWA cells) was > 1000 nM; in data set [2] (Table 6, in NAMALWA cells line), > 1000 nM.

`Nc1ncnc2c1c(-c1ccc(Oc3ccccc3)cc1)nn2C1CCN(CCOCCOCC(=O)Nc2cccc3c2C(=O)N(C2CCC(=O)NC2=O)C3=O)CC1` (centres unmarked) [Compound 101, 2-(2-(2-(4-(4-amino-3-(4-phenoxyphenyl)-1H-pyrazolo[3,4-d]pyrimidin-1-yl)piperidin-1-yl)ethoxy)ethoxy)-N-(2-(2,6-dioxopiperidin-3-yl)-1,3-dioxoisoindolin-4-yl)acetamide]: the “ability to degrade BTK” value in data set [2] (NAMALWA cells) was “inability to degrade BTK”.

With `Cc1ncsc1-c1ccc(CNC(=O)[C@@H]2C[C@@H](O)CN2C(=O)[C@@H](NC(=O)COCCOCCOCCOCCN2CCN(C3CCC(n4nc(-c5ccc(Oc6ccccc6)cc5)c5c(N)ncnc54)CC3)CC2)C(C)(C)C)cc1` (stereo partly drawn) [Compound 114, (2S,4R)-1-((S)-17-(4-(4-(4-amino-3-(4-phenoxyphenyl)-1H-pyrazolo[3,4-d]pyrimidin-1-yl)cyclohexyl)piperazin-1-yl)-2-tert-butyl-4-oxo-6,9,12,15-tetraoxa-3-azaheptadecane)-4-hydroxy-N-(4-(4-methylthiazol-5-yl)benzyl)pyrrolidine-2-carboxamide], the “HER3 Degradation” value in data set [1] is “No”.
